{
  "source": "patent US20220333077A1",
  "about": "“Product for Therapy and Methods” (The University of Bristol, priority 2019, published 2022)",
  "key": {"[1]": {"system": "thymidine phosphorylase (TP)", "assay": "Effect of degradation inhibitors on TP expression in differentiating cTP cells", "type": "cell-based, human", "details": "day 14 cTP cells, 24 hours incubation; 10 μM leupeptin or 5 μM MG132", "from_the_text": "The substantial loss of TP enzyme expression during differentiation could mean that TP is being actively degraded during terminal differentiation. To test whether exogenous TP degradation during differentiation is due to ubiquitination or lysosomal degradation, we subjected the day 14 (orthochromatic erythrocytes) cTP cells to an ubiquitination inhibitor MG132, or a lysosomal degradation inhibitor, leupeptin (Tsubuki, S., et al., J Biochem, 1996, 119(3), p. 572-6; Hershko, A. and A. Ciechanover, Annu Rev Biochem, 1982, 51, p. 335-64). TP expression was first measured on day 14 and then 24 hours after incubation with inhibitors or the vehicle control.\nAs previously described (Griffiths, R. E., et al., Blood, 2012. 119(26), p. 6296-306), CD34+ haemopoietic stem cells (HSC) here isolated from human blood donor mononuclear cells or from thawed cryopreserved cord blood units by magnetic bead separation according to manufacturer's instructions (Miltenyi Biotech Ltd, Bisley UK). CD34+ cells were grown at a density of 2×10^5 cells/ml using a base medium consisting of IMDM (Source BioScience) containing 3% (v/v) AB Serum, 2 mg/ml HSA, 10 μg/ml Insulin, 3U/ml heparin, 500 μg/ml transferrin and 3U/ml Epo. […] Cells where fixed with paraformaldehyde and analysed by flow cytometry."}, "glutamine synthase": {"system": "glutamine synthase", "assay": "MG132 effect on glutamine synthase levels in GS (over)expressing erythroblasts, flow cytometry", "type": "cell-based, human", "details": "MG132 added at day 15, expression measured at day 19", "from_the_text": "To investigate the degree to which exogenous enzyme expression is retained during erythropoiesis, four different enzymes were expressed in CD34+ haematopoietic stem cells (using lentivirus) and subsequently differentiated to reticulocytes: glutamine synthase (FIG. 8), adenosine deaminase (FIG. 9), L-asparaginase (FIG. 10), and uricase (FIG. 11). The exogenous proteins Uricase (a bacterial enzyme), human L-asparaginase (ASP) and human […] (ADA) were tagged with c-Myc to facilitate measurement of expression during differentiation by flow cytometry and western blot. GAPDH is an endogenous enzyme which was also blotted for in some cases. For human glutamine synthetase (GS) an antibody specific for this protein was used to detect expression by flow cytometry. The bar graphs in FIGS. 8-11 show expression of indicated enzymes during differentiation as assessed by flow cytometry across two different cultures. Western blots illustrate expression of the enzymes in in vitro derived reticulocytes. To explore whether ubiquitination enhances GS enzyme retention at the end of the culture, MG132 (a ubiquitin inhibitor) was added at day 15 to the GS (over)expressing erythroblasts. Expression was measured at day 19 by flow cytometry."}, "[2]": {"molecular_target": "T1, thymidine phosphorylase (TP) (Homo sapiens, UniProt P19971)", "T1 construct": "expressed in transfected cells; host or cells: CD34+-derived cultured human erythroid progenitors (cTP) and BEL-A erythroid cells (bTP), lentiviral XLG3 vector", "T1 sequence (P19971 11-482)": "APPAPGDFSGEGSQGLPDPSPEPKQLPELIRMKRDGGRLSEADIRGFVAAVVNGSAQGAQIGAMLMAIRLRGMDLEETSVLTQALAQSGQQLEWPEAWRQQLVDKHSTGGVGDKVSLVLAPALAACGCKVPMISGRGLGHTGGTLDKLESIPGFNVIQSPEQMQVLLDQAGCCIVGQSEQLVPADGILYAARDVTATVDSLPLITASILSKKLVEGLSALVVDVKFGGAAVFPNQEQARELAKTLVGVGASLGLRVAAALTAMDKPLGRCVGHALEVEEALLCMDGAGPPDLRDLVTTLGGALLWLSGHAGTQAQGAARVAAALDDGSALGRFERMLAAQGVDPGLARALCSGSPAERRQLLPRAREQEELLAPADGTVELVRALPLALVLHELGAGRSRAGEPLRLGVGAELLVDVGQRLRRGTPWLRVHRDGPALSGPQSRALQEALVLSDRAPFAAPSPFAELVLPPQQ", "assay": "Thymidine supplementation of differentiation media, TP enzyme abundance in reticulocytes", "type": "cell-based", "from_the_text": "After further examination of the molecular human TP structure we observed that the 2 ubiquitination sites that correspond with murine TP, would only be available for ubiquitination in the absence of substrate.\nReticulocytes were identified by gating upon Hoechst-negative population."}, "[3]": {"system": "in vitro cultured erythroid cells", "type": "cell-based", "details": "0.5 mM thymidine added early, e.g. Day 0 of differentiation; data not shown"}},
  "note": "“Also recorded” adds a separate entry of the source. Residues, ends and D or L forms follow the SMILES beside them. *: point of attachment. Cbz = O=C(OCc1ccccc1)*",
  "data": [
    {"smiles": "CC(=O)N[C@@H](CC(C)C)C(=O)N[C@@H](CC(C)C)C(=O)N[C@H](C=O)CCCNC(=N)N", "note": "[leupeptin]", "values": [
      {"measurement": "effect on TP degradation during differentiation", "setting": "[1]", "result": "did not impair degradation"}
    ]},
    {"smiles": "CC(C)C[C@@H](C=O)NC(=O)[C@H](CC(C)C)NC(=O)[C@H](CC(C)C)NC(=O)OCc1ccccc1", "note": "[MG132] (Cbz-Leu-Leu-Leu-aldehyde)", "values": [
      {"measurement": "effect on TP degradation during differentiation", "setting": "[1]", "result": "protected TP from degradation during differentiation; also recorded: inhibition of degradation was observed"},
      {"measurement": "glutamine synthase levels in reticulocytes", "setting": "glutamine synthase", "result": "increases glutamine synthase levels in reticulocytes"}
    ]},
    {"smiles": "Cc1cn([C@H]2C[C@H](O)[C@@H](CO)O2)c(=O)[nH]c1=O", "note": "[thymidine]", "values": [
      {"measurement": "TP enzyme abundance compared to standard differentiation media", "setting": "[2]; bTP reticulocytes, 0.5 mM thymidine daily from day 6 (polychromatic erythroblast stage)", "result": "doubled"},
      {"measurement": "TP enzyme abundance compared to standard differentiation media", "setting": "[2]; cTP reticulocytes, 0.5 mM thymidine daily from day 14 (polychromatic erythroblast stage)", "result": "doubled"},
      {"measurement": "concentration of active TP in the reticulocyte", "setting": "[2]; thymidine added to the media, un-mutated ubiquitination site", "result": "roughly double"},
      {"measurement": "cell death and differentiation", "setting": "[3]", "result": "increase in cell death and inhibition of differentiation"}
    ]}
  ]
}
